Measurements from BindingDB's records for doi:10.1021/jm800662z (Johnson & Johnson Pharmaceutical, 2008).

Target: T1, Tyrosine-protein kinase JAK3 (Homo sapiens, UniProt P52333)
T1 sequence (P52333 whole entry): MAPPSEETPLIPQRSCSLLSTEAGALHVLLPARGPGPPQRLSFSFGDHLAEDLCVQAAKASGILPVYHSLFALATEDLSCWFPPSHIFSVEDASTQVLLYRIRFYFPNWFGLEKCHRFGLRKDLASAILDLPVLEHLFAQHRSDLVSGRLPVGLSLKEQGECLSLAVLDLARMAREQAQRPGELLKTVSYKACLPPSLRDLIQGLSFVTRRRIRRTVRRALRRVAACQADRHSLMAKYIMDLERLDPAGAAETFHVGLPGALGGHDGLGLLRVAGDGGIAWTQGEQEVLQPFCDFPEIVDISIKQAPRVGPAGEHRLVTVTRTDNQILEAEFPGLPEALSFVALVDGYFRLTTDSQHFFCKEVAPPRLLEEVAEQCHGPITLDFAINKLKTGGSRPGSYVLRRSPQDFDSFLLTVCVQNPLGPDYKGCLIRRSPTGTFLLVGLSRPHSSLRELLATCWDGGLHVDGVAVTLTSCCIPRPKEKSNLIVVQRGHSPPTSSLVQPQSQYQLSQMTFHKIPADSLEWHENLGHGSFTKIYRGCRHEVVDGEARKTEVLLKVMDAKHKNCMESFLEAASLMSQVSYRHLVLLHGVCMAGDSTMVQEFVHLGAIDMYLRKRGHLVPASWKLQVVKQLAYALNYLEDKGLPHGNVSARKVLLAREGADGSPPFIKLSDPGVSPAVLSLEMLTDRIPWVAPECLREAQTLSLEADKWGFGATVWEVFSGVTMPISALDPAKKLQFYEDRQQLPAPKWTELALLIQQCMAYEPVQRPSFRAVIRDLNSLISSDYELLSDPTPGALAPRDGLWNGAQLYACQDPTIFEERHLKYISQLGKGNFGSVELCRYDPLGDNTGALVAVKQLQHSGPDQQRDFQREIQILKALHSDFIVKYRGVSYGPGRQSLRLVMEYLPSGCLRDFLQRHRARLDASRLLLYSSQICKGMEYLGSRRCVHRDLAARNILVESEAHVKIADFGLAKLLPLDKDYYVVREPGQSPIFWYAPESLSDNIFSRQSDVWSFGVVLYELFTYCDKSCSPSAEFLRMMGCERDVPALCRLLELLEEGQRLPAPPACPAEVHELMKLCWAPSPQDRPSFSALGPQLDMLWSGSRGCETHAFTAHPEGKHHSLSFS
Assay: JAK3 Inhibition Assay
Settings: pH 7.5; 22 °C
Method: An ELISA assay was used to determine the ability of inhibitor to inhibit JAK3 […] activity. The compounds were incubated with enzyme, 10 uM ATP, and biotinylated peptide substrate. Phosphorylated tyrosine was then detected by sequential incubation with anti-phosphotyrosine antibody.

**Q.** How did the IC50 turn out when `O=C1c2ccccc2-c2n[nH]c3cccc1c23` was run?
**A.** 957 nM
